# Measured values taken from ChEMBL document CHEMBL5550100, “Discovery of LHF418 as a new potent SOS1 PROTAC degrader” (Bioorg Med Chem, 2024).
# What was measured:
# Format in all cases: cell-based
# [1] = target: T1, Protein cereblon/Son of sevenless homolog 1 (Homo sapiens, UniProt Q07889+Q96SW2); assay: PROTAC activity at CRBN/SOS1 in human A549 cells assessed as protein degradation at 0.1 uM incubated for 24 hrs by immunoblot analysis relative to control
# [2] = target: T1, Protein cereblon/Son of sevenless homolog 1; assay: PROTAC activity at CRBN/SOS1 in human A549 cells assessed as protein degradation at 1 uM incubated for 24 hrs by immunoblot analysis relative to control
# [3] = target: T1, Protein cereblon/Son of sevenless homolog 1; assay: PROTAC activity at CRBN/SOS1 in human A549 cells assessed as protein degradation at 10 uM incubated for 24 hrs by immunoblot analysis relative to control
# T1 sequence (Q07889 whole entry, looked up): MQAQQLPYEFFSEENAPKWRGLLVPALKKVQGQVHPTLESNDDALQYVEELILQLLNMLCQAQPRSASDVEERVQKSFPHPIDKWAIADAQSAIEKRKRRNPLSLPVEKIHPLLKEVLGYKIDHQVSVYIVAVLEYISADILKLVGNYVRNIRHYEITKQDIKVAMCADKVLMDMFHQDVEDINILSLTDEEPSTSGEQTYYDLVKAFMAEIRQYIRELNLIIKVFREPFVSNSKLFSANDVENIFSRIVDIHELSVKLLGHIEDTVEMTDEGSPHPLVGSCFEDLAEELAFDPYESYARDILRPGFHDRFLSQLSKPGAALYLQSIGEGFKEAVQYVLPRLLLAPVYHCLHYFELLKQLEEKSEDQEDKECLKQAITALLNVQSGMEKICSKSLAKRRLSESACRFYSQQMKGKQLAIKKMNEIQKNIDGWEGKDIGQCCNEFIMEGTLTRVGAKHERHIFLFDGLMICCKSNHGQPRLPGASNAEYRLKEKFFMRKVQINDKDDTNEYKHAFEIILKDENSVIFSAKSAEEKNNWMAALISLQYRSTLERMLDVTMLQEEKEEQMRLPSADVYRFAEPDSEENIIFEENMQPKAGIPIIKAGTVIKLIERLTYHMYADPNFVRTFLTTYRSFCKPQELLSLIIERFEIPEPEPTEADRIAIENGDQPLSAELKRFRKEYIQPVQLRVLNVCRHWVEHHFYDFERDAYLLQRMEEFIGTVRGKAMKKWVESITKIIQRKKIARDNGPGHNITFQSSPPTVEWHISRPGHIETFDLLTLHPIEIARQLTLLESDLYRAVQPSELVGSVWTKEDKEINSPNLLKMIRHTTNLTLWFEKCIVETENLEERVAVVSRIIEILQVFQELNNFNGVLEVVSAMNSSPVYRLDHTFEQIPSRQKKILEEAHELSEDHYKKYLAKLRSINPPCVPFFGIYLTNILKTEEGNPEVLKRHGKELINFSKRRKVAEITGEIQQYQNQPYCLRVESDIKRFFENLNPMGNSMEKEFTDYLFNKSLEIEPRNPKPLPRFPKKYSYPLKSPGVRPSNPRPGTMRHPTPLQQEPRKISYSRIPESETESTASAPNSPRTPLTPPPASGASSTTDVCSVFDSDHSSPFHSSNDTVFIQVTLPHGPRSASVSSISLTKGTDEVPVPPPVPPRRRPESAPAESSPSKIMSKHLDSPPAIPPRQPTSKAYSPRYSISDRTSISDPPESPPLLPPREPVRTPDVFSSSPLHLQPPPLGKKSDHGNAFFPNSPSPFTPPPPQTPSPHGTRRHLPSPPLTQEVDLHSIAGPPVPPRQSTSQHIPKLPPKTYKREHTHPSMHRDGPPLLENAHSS
# T1 sequence (Q96SW2 whole entry, looked up): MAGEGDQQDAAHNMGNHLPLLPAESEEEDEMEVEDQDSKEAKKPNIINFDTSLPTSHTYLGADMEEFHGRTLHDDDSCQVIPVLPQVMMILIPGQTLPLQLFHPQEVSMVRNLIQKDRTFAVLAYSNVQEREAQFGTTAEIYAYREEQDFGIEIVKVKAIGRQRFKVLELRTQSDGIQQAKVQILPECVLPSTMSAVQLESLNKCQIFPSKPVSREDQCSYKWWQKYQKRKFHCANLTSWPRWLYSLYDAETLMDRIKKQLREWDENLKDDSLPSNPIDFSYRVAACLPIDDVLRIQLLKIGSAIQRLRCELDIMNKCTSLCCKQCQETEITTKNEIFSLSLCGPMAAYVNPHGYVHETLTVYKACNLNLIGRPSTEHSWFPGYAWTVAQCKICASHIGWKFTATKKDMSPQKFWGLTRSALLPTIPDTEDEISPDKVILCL
Structure (SMILES),Activity [1] [%],Activity [2] [%],Activity [3] [%]
COc1cc2nc(C)nc(N[C@H](C)c3cc(N)cc(C(F)(F)F)c3)c2cc1O[C@H]1CCN(C(=O)CCCCC(=O)Nc2cccc3c2CN(C2CCC(=O)NC2=O)C3=O)C1 (some centres not stated),1.8,0,0
COc1cc2nc(C)nc(N[C@H](C)c3cc(N)cc(C(F)(F)F)c3)c2cc1O[C@H]1CCN(C(=O)CCCCCCCCCCC(=O)Nc2cccc3c2CN(C2CCC(=O)NC2=O)C3=O)C1 (some centres not stated),0,0,0
COc1cc2nc(C)nc(N[C@H](C)c3cc(N)cc(C(F)(F)F)c3)c2cc1O[C@H]1CCN(C(=O)CNc2cccc3c2C(=O)N(C2CCC(=O)NC2=O)C3=O)C1 (some centres not stated),1.7,2.6,0
COc1cc2nc(C)nc(N[C@H](C)c3cc(N)cc(C(F)(F)F)c3)c2cc1O[C@H]1CCN(C(=O)CCCCCCCCC(=O)Nc2ccc3c(c2)C(=O)N(C2CCC(=O)NC2=O)C3)C1 (some centres not stated),0,2.5,0.6
COc1cc2nc(C)nc(N[C@H](C)c3cc(N)cc(C(F)(F)F)c3)c2cc1O[C@H]1CCN(C(=O)CCC(=O)Nc2ccc3c(c2)C(=O)N(C2CCC(=O)NC2=O)C3)C1 (some centres not stated),13.7,20,35.6
COc1cc2nc(C)nc(N[C@H](C)c3cc(N)cc(C(F)(F)F)c3)c2cc1O[C@H]1CCN(C(=O)CCCCCCCCC(=O)Nc2cccc3c2C(=O)N(C2CCC(=O)NC2=O)C3)C1 (some centres not stated),6.4,6.7,18.1
COc1cc2nc(C)nc(N[C@H](C)c3cc(N)cc(C(F)(F)F)c3)c2cc1O[C@H]1CCN(C(=O)CCC(=O)Nc2ccc3c(c2)CN(C2CCC(=O)NC2=O)C3=O)C1 (some centres not stated),0,0,2.4
COc1cc2nc(C)nc(N[C@H](C)c3cc(N)cc(C(F)(F)F)c3)c2cc1O[C@H]1CCN(C(=O)CC(=O)Nc2ccc3c(c2)C(=O)N(C2CCC(=O)NC2=O)C3)C1 (some centres not stated),8.5,6.1,7.5
COc1cc2nc(C)nc(N[C@H](C)c3cc(N)cc(C(F)(F)F)c3)c2cc1O[C@H]1CCN(C(=O)CCCCCCC(=O)Nc2ccc3c(c2)CN(C2CCC(=O)NC2=O)C3=O)C1 (some centres not stated),3.9,57.7,4.1
COc1cc2nc(C)nc(N[C@H](C)c3cc(N)cc(C(F)(F)F)c3)c2cc1O[C@H]1CCN(C(=O)CCCCCNc2ccc3c(c2)C(=O)N(C2CCC(=O)NC2=O)C3=O)C1 (some centres not stated),5.6,11.9,19.3
COc1cc2nc(C)nc(N[C@H](C)c3cc(N)cc(C(F)(F)F)c3)c2cc1O[C@H]1CCN(C(=O)CCCCC(=O)Nc2ccc3c(c2)C(=O)N(C2CCC(=O)NC2=O)C3)C1 (some centres not stated),2.7,12.2,37.6
COc1cc2nc(C)nc(N[C@H](C)c3cc(N)cc(C(F)(F)F)c3)c2cc1O[C@H]1CCN(C(=O)CNc2ccc3c(c2)C(=O)N(C2CCC(=O)NC2=O)C3=O)C1 (some centres not stated),0,0,1.5
COc1cc2nc(C)nc(N[C@H](C)c3cc(N)cc(C(F)(F)F)c3)c2cc1O[C@H]1CCN(C(=O)CCCCCCCCC(=O)Nc2ccc3c(c2)CN(C2CCC(=O)NC2=O)C3=O)C1 (some centres not stated),0,9.5,9
COc1cc2nc(C)nc(N[C@H](C)c3cc(N)cc(C(F)(F)F)c3)c2cc1O[C@H]1CCN(C(=O)CCCCCCCNc2cccc3c2C(=O)N(C2CCC(=O)NC2=O)C3=O)C1 (some centres not stated),15.3,13,6.1
COc1cc2nc(C)nc(N[C@H](C)c3cc(N)cc(C(F)(F)F)c3)c2cc1O[C@H]1CCN(C(=O)CC(=O)Nc2cccc3c2C(=O)N(C2CCC(=O)NC2=O)C3)C1 (some centres not stated),0,11.6,9.2
COc1cc2nc(C)nc(N[C@H](C)c3cc(N)cc(C(F)(F)F)c3)c2cc1O[C@H]1CCN(C(=O)CCC(=O)Nc2cccc3c2C(=O)N(C2CCC(=O)NC2=O)C3)C1 (some centres not stated),0,9.6,0
COc1cc2nc(C)nc(N[C@H](C)c3cc(N)cc(C(F)(F)F)c3)c2cc1O[C@H]1CCN(C(=O)CC(=O)Nc2ccc3c(c2)CN(C2CCC(=O)NC2=O)C3=O)C1 (some centres not stated),0,4,9.3
COc1cc2nc(C)nc(N[C@H](C)c3cc(N)cc(C(F)(F)F)c3)c2cc1O[C@H]1CCN(C(=O)CCCCCCC(=O)Nc2ccc3c(c2)C(=O)N(C2CCC(=O)NC2=O)C3)C1 (some centres not stated),7.9,37.6,8.2
COc1cc2nc(C)nc(N[C@H](C)c3cc(N)cc(C(F)(F)F)c3)c2cc1O[C@H]1CCN(C(=O)CCCNc2cccc3c2C(=O)N(C2CCC(=O)NC2=O)C3=O)C1 (some centres not stated),0.9,0,8
COc1cc2nc(C)nc(N[C@H](C)c3cc(N)cc(C(F)(F)F)c3)c2cc1O[C@H]1CCN(C(=O)CC(=O)Nc2cccc3c2CN(C2CCC(=O)NC2=O)C3=O)C1 (some centres not stated),1,4.7,7
COc1cc2nc(C)nc(N[C@H](C)c3cc(N)cc(C(F)(F)F)c3)c2cc1O[C@H]1CCN(C(=O)CCCCCCCNc2ccc3c(c2)C(=O)N(C2CCC(=O)NC2=O)C3=O)C1 (some centres not stated),6.6,20.9,42.9
COc1cc2nc(C)nc(N[C@H](C)c3cc(N)cc(C(F)(F)F)c3)c2cc1O[C@H]1CCN(C(=O)CCCCCCCCC(=O)Nc2cccc3c2CN(C2CCC(=O)NC2=O)C3=O)C1 (some centres not stated),11.4,39.1,26.1
COc1cc2nc(C)nc(N[C@H](C)c3cc(N)cc(C(F)(F)F)c3)c2cc1O[C@H]1CCN(C(=O)CCCCCCC(=O)Nc2cccc3c2C(=O)N(C2CCC(=O)NC2=O)C3)C1 (some centres not stated),2.6,0,3.7
COc1cc2nc(C)nc(N[C@H](C)c3cc(N)cc(C(F)(F)F)c3)c2cc1O[C@H]1CCN(C(=O)CCCCC(=O)Nc2cccc3c2C(=O)N(C2CCC(=O)NC2=O)C3)C1 (some centres not stated),5.6,1.6,10.2
COc1cc2nc(C)nc(N[C@H](C)c3cc(N)cc(C(F)(F)F)c3)c2cc1O[C@H]1CCN(C(=O)CCCCCCC(=O)Nc2cccc3c2CN(C2CCC(=O)NC2=O)C3=O)C1 (some centres not stated),2.1,31.9,65.4
COc1cc2nc(C)nc(N[C@H](C)c3cc(N)cc(C(F)(F)F)c3)c2cc1O[C@H]1CCN(C(=O)CCCCCNc2cccc3c2C(=O)N(C2CCC(=O)NC2=O)C3=O)C1 (some centres not stated),14.3,5.7,6.7
COc1cc2nc(C)nc(N[C@H](C)c3cc(N)cc(C(F)(F)F)c3)c2cc1O[C@H]1CCN(C(=O)CCCCC(=O)Nc2ccc3c(c2)CN(C2CCC(=O)NC2=O)C3=O)C1 (some centres not stated),7.1,10,15.6
COc1cc2nc(C)nc(N[C@H](C)c3cc(N)cc(C(F)(F)F)c3)c2cc1O[C@H]1CCN(C(=O)CCCCCCCCCNc2ccc3c(c2)C(=O)N(C2CCC(=O)NC2=O)C3=O)C1 (some centres not stated),0,0,0
COc1cc2nc(C)nc(N[C@H](C)c3cc(N)cc(C(F)(F)F)c3)c2cc1O[C@H]1CCN(C(=O)CCCNc2ccc3c(c2)C(=O)N(C2CCC(=O)NC2=O)C3=O)C1 (some centres not stated),4,8.9,9.4
